Measurements reported in paper PMC10112881 (Cell reports, 2023).
Where two headings read alike, the source gives them in different places.

Assays:
α2B = α2B (Homo sapiens, UniProt P18089); assay: G protein dissociation BRET assay; format: cell-based; settings: read-out: KB (antagonist)
[1] = test system: 5-HT1 Gi/o-coupled receptor subtypes; assay: G protein dissociation BRET assay; format: cell-based, human
HTR induced by DOI [2] = assay: Blockade of DOI-induced head-twitch response; settings: DOI 1 mg/kg IP
rat cortical neurons = assay: Spinogenesis in cultured cortical neurons; format: cell-based; settings: 1 and 10 μM, 3 h at DIV18, read 24 h after onset
5-HT7a [3] = target: T1, 5-HT7a (Homo sapiens, UniProt P34969); assay: cAMP accumulation GloSensor assay; format: cell-based; settings: read-out: EC50 (inverse agonism)
T1 sequence (P34969 1-445 isoform P34969-2): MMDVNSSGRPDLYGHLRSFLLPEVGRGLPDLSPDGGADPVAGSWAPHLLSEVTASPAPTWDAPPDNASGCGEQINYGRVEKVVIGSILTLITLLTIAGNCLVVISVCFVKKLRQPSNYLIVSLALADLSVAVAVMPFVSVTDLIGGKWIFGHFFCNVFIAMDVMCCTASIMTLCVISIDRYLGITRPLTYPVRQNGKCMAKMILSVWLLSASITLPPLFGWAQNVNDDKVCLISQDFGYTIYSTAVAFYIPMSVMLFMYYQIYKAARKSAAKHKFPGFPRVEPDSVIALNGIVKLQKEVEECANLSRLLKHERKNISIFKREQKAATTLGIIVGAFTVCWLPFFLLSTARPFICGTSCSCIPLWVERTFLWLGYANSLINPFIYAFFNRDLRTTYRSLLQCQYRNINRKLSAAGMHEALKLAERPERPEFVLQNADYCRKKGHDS

HTR induced by DOI [4] = assay: Tolerance to DOI-induced HTR after repeated treatment; settings: 3 mg/kg/day IP 7 days, DOI 1 mg/kg challenge 24 h later
5-HT4 = 5-HT4 (Homo sapiens, UniProt Q13639); assay: G protein dissociation BRET assay; format: cell-based
Chain of 5-HT4 (Q13639 whole entry): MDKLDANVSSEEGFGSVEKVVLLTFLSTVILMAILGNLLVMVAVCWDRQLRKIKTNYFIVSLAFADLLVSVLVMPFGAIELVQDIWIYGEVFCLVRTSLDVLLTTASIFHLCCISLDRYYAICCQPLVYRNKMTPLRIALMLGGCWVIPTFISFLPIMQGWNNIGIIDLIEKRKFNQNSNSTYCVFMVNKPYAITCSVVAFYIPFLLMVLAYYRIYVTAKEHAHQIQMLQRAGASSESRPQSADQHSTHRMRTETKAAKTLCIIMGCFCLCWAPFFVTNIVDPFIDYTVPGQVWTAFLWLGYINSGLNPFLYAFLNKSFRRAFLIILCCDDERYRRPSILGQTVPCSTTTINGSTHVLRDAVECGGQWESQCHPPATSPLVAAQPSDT

5-HT2A [5] = target: T2, 5-HT2A (Homo sapiens, UniProt P28223); assay: NanoBit HiBiT surface expression/internalization assay; format: cell-based; settings: 60 minutes of treatment
T2 sequence (P28223 whole entry): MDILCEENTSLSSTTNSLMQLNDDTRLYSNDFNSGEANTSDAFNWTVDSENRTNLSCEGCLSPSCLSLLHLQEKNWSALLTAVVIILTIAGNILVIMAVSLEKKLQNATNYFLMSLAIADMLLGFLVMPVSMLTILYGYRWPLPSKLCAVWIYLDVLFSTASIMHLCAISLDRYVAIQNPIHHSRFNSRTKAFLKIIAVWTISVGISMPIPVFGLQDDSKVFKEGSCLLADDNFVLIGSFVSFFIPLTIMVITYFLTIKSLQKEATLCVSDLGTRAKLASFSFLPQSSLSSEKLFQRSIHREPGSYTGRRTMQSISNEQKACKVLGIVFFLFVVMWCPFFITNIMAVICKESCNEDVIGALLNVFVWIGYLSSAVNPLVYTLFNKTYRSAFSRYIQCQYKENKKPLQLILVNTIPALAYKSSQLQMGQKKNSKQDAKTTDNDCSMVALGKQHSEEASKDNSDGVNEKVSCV

Open field test = format: in vivo, C57BL/6J mice; settings: 24 h after
hERG (KV11.1) channel [6] = target: T3, hERG (KV11.1) channel (Homo sapiens, UniProt Q12809); settings: read-out: IC50 (hERG inhibition)
T3 sequence (Q12809 whole entry): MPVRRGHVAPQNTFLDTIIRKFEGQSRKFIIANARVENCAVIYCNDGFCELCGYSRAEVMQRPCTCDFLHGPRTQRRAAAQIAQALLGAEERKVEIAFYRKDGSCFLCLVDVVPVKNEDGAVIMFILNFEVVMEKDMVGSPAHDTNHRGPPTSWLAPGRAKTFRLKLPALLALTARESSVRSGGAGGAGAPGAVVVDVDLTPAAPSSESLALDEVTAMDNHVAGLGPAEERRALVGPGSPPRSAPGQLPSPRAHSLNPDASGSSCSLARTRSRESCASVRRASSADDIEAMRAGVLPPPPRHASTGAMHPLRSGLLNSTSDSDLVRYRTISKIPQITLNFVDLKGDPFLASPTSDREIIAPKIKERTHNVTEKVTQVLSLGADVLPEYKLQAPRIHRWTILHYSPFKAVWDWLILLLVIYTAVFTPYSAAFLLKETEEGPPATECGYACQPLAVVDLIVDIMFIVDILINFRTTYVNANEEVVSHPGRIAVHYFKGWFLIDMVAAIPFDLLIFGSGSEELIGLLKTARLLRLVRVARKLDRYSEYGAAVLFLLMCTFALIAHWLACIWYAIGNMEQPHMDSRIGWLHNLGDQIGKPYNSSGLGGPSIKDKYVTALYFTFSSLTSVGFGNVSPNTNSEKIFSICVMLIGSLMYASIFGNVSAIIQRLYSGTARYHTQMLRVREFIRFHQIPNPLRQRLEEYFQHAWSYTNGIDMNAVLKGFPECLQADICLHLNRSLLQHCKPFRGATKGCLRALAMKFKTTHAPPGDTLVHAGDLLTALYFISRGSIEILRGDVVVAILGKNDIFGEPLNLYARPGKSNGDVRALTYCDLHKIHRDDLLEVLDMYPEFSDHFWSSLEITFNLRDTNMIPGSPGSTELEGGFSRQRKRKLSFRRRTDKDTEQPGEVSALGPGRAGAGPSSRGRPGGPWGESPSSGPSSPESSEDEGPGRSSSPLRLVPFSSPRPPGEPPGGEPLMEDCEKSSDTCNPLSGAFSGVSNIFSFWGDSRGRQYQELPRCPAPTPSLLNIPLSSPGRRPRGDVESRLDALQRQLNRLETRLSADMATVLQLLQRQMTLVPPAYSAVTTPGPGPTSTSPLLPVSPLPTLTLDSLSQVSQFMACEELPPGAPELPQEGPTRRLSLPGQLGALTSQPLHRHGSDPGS

α1B = α1B (Homo sapiens, UniProt P35368); assay: G protein dissociation BRET assay; format: cell-based; settings: read-out: KB (antagonist)
5-HT2B = 5-HT2B (Homo sapiens, UniProt P41595); assay: 5-HT2B Gq dissociation, β-arrestin2 recruitment BRET and calcium flux assays
Chain of 5-HT2B (P41595 whole entry): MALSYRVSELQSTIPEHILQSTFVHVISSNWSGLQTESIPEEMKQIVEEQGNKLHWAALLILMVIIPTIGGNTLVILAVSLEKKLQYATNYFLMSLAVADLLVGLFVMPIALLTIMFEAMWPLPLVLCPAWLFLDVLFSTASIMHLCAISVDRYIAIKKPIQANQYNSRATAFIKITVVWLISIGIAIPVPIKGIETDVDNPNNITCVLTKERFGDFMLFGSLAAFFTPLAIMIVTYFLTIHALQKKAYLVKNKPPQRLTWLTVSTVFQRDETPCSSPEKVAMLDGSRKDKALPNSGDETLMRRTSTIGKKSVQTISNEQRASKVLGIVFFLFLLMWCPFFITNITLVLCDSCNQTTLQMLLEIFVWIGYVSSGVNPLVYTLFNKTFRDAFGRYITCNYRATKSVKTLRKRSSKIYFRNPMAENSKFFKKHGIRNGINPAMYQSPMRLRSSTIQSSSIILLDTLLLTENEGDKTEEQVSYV

[7] = Chronic variable stress: splash test; format: in vivo, female mice; settings: 1X 3 mg/kg and 4X 1 mg/kg groups
[8] = test system: rest of the histamine and muscarinic GPCRs; assay: G protein dissociation BRET assay; format: cell-based, human
[9] = Pharmacokinetics in plasma and brain of mice; settings: for mean plasma Cmax / Cmax: IP 6.75 mg/kg; for mean terminal T1/2, plasma: range over doses; for Cmax: read-out: mean plasma Cmax
[10] = Chronic variable stress: open field test; format: in vivo, female mice
PFC pyramidal neurons = assay: Spine density in prefrontal cortex; settings: 1 mg/kg IP, ~26 h after treatment, both sexes
OCT2 = OCT2 (Homo sapiens, UniProt O15244); assay: Transporter panel: OCT2
Chain of OCT2 (O15244 whole entry): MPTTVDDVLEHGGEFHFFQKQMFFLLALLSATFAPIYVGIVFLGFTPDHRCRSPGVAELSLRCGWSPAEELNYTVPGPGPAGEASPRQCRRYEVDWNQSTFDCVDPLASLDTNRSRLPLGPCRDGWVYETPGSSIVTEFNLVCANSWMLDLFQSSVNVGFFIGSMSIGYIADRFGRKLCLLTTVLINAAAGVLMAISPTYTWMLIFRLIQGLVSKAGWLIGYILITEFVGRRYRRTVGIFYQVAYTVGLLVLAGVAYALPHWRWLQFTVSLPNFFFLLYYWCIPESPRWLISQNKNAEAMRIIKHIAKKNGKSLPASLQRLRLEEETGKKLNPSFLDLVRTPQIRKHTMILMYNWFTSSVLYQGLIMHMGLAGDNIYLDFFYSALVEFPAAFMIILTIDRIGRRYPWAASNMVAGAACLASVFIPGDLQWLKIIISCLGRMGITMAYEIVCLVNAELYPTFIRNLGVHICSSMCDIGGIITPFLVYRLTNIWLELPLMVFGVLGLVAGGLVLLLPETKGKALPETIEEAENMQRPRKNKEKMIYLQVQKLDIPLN

33 human aminergic GPCRs = assay: Pan-aminergic GPCR functional screen; format: cell-based; settings: of 33 aminergic GPCR targets tested
H2 = H2 (Homo sapiens, UniProt P25021); assay: G protein dissociation BRET assay; format: cell-based
5-HT7a [11] = target: T1, 5-HT7a; assay: G protein dissociation BRET assay; format: cell-based
hERG (KV11.1) channel [12] = target: T3, hERG (KV11.1) channel; assay: hERG inhibition
5-HT2A [13] = target: T2, 5-HT2A; format: cell-based; settings: Gq dissociation
head-twitch response = assay: Head-twitch response
α2C = α2C (Homo sapiens, UniProt P18825); assay: G protein dissociation BRET assay; format: cell-based
Chain of α2C (P18825 whole entry): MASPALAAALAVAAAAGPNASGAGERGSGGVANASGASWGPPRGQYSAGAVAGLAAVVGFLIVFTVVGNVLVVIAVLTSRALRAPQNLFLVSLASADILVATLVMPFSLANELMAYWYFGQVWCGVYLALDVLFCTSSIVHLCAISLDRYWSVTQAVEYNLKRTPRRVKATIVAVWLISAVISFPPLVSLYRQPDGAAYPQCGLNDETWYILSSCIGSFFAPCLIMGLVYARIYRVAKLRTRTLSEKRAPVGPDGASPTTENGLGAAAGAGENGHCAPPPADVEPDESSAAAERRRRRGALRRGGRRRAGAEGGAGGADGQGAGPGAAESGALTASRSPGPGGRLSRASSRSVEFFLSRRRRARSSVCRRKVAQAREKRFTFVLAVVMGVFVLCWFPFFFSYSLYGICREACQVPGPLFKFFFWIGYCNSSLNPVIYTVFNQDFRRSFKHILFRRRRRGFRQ

5-HT6 = 5-HT6 (Homo sapiens, UniProt P50406); assay: G protein dissociation BRET assay; format: cell-based; settings: read-out: EC50 (partial agonism)
β1 = β1 (Homo sapiens, UniProt P08588); assay: G protein dissociation BRET assay; format: cell-based; settings: read-out: KB (antagonist)
α1A = α1A (Homo sapiens, UniProt P35348); assay: G protein dissociation BRET assay; format: cell-based; settings: read-out: KB (antagonist)
Chain of α1A (P35348 whole entry): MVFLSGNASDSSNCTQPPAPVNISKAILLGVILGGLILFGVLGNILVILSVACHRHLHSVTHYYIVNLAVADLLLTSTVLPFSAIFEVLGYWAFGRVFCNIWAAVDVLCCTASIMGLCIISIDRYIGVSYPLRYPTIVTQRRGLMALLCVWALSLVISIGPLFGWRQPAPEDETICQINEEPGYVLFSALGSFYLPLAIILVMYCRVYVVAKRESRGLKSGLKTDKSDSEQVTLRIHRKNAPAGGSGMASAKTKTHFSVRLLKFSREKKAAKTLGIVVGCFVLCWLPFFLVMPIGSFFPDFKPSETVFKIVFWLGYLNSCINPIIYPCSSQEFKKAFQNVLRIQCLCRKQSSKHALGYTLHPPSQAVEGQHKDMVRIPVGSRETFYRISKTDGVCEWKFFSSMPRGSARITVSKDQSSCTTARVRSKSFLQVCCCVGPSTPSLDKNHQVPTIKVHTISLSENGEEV

Forced swim test = format: in vivo, C57BL/6J mice; settings: 25 h after
[14] = cited from earlier work
β2 = β2 (Homo sapiens, UniProt P07550); assay: G protein dissociation BRET assay; format: cell-based; settings: read-out: KB (antagonist)
Nav1.5 sodium channels = Nav1.5 sodium channels (Homo sapiens, UniProt Q14524); assay: Off-target panel: Nav1.5
5-HT2C [15] = target: T4, 5-HT2C (Homo sapiens, UniProt P28335); format: cell-based
T4 sequence (P28335 33-458): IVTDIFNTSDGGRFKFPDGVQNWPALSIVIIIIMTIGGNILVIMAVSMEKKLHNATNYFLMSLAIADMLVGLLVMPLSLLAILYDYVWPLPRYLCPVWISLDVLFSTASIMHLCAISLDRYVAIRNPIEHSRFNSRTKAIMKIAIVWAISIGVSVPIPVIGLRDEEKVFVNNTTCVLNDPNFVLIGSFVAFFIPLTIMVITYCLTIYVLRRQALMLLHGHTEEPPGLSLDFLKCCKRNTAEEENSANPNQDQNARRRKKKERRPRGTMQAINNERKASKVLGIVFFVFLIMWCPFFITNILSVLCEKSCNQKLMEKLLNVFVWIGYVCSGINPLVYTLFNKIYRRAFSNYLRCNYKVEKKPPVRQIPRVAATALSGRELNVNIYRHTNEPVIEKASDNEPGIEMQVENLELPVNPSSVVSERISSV

5-HT2C [16] = target: T4, 5-HT2C; format: cell-based; settings: Gq partial agonism

For `CCN(CC)C(=O)[C@@H]1C=C2c3cccc4[nH]c(Br)c(c34)C[C@H]2N(C)C1.CCN(CC)C(=O)[C@@H]1C=C2c3cccc4[nH]c(Br)c(c34)C[C@H]2N(C)C1.O=C(O)C(O)C(O)C(=O)O` [2-Br-LSD, (6aR,9R)-2-bromolysergic acid diethylamide (2:1) (+)-tartrate], the Kb (α2B) was 79 nM, the “agonism at all 5-HT1 subtypes” value [1] was “potent pan-agonism” and the “time-course of blockade of the response to DOI” value (HTR induced by DOI [2]; 1 mg/kg IP pre-treatment) was “almost completely blocked during the first 10 minutes”. The “attenuation of the response to DOI” value (HTR induced by DOI [2]; 3 mg/kg IP pre-treatment, 30 min) was 76%, the spine density (rat cortical neurons) was “spine density increased” and the EC50 (5-HT7a [3]) was 5.1 nM. For the same compound, the “tolerance on HTR after repeated treatment” value (HTR induced by DOI [4]) was “no tolerance was observed”, the “activity at 5-HT4” value (5-HT4) was “lack potent agonist or antagonist activity” and the “5-HT2A internalization (loss of surface expression)” value (5-HT2A [5]) was “partial agonist effect”. The “locomotion (distance travelled)” value (Open field test; 0.3, 1, 3 mg/kg IP, females and males) was “neither females nor males showed a significant increase in locomotion”, the “increase in time in the arena center” value (Open field test; female mice, 1 mg/kg IP) was 88.18 ± 18.89 s and the “increased exploration of the open field center” value (Open field test; male mice) was “not significant”. For the same compound, the IC50 (hERG (KV11.1) channel [6]) was 31600 nM, the Kb (α1B) was 38 nM and the 5-HT2B agonist activity (5-HT2B; Gq dissociation, β-arrestin2 recruitment, Gq-mediated calcium flux) was “failed to induce”. For the same compound, the 5-HT2B antagonist activity (5-HT2B; vs 5-HT) was “potent antagonist activity”, the “self-grooming time in CVS mice” value [7] was “partial reversal of CVS effects” and the “agonism or antagonism at the rest of the histamine and muscarinic GPCRs” value [8] was “neither 2-Br-LSD nor LSD possessed weak agonism or antagonism”. The “level in the brain” value ([9]; 4 h post-dosing) was “below the lower limit of detection”, the “plasma concentrations, male compared to female mice” value ([9]; IP) was 2–5 x and the “mean plasma Cmax” value ([9]; females) was 826.06 ng/mL. For the same compound, the “mean plasma Cmax” value ([9]; males) was 1558.74 ng/mL, the “mean terminal T1/2, plasma” value ([9]; IP, female mice) was 54 to 156 min and the “mean T1/2 in the brain” value ([9]; IP, females) was 24 to 78 min. For the same compound, the “mean brain Tmax” value ([9]; IP, male and female mice) was 10.2 min, the “mean terminal T1/2, plasma” value ([9]; IP, male mice) was 72 to 84 min and the “mean T1/2 in the brain” value ([9]; IP, males) was 42 to 60 min. For the same compound, the “plasma Tmax” value ([9]; IP, all groups except male mice at 0.75 mg/kg) was 12 min, the “plasma Tmax” value ([9]; IP, male mice, 0.75 mg/kg) was 30 min and the Cmax ([9]; females) was 2100 nM. The Cmax ([9]; males) was 3900 nM, the “exploration of the arena center in CVS mice” value ([10]; 1X 3 mg/kg IP) was “partially restored the effect of CVS” and the “exploration of the arena center in CVS mice” value ([10]; 4X 1 mg/kg IP every 48 h) was “levels matching the control”. For the same compound, the “time exploring the center in CVS mice” value ([10]; 4X 1 mg/kg, 28 days after the last treatment) was “remained reversed”, the “average spine density in PFC” value (PFC pyramidal neurons) was “significant increase in average spine density” and the IC50 (OCT2) was 500 nM. For the same compound, the “number of aminergic GPCR targets with agonist activity” value (33 human aminergic GPCRs) was 14, the “agonism at H2” value (H2) was “weak partial agonism” and the “activity at 5-HT7a” value (5-HT7a [11]) was “act as antagonists”. It also gave an EC50 (hERG (KV11.1) channel [12]) of 31600 nM, an EC50 (5-HT2A [13]) of 0.81 nM and an EMAX (5-HT2A [13]; normalized to 5-HT) of 59.8%. For the same compound, the “induction of the HTR” value (head-twitch response; 0.1–10 mg/kg IP, male C57BL/6J mice, 60 min) was “did not induce the HTR”, the “induction of the HTR after S-(–)-raclopride pretreatment” value (head-twitch response; raclopride 1 mg/kg, then 2-Br-LSD 3 mg/kg) was “did not induce the HTR” and the EC50 (α2C) was 10.4 nM. For the same compound, the EMAX (α2C; partial agonism) was 40.5%, the EC50 (5-HT6) was 0.35 nM and the Kb (β1) was 113 nM. It also gave a Kb (α1A) of 43 nM, a decrease in immobility (Forced swim test; females, 1 mg/kg IP) of 35.18 ± 10.03 s and a decrease in immobility (Forced swim test; males, 0.3 mg/kg IP) of 20.89 ± 8.249 s. The decrease in immobility (Forced swim test; males, 1 mg/kg IP) was 27.27 ± 8.226 s, the decrease in immobility (Forced swim test; males, 3 mg/kg IP) was 31.36 ± 8.226 s and the “side effects in cluster headache patients” value ([14]; 30 μg/kg orally on three occasions) was “only minor side effects”. The “efficacy against cluster headaches” value [14] was “showed efficacy against cluster headaches”, the “subjective effects in humans” value ([14]; intravenous infusion of 18–22 μg/kg) was “more intense effects” and the “subjective effects in humans” value ([14]; oral doses 64–256 μg/kg) was “mild subjective responses”. For the same compound, the Kb (β2) was 47 nM, the EC50 (Nav1.5 sodium channels) was 1100 nM and the β-arrestin2 recruitment agonism (5-HT2C [15]) was “no detectable β-arrestin2 recruitment agonism”. It also gave an EMAX (5-HT2C [16]) of 45.8%.
